This is an account of results in patent US8440638B2, “Compositions and methods for modulating calcium flux, glucose homeostasis and apoptosis” (Wisconsin Alumni Research Foundation, priority 2004, dated 2013).

One data set has as its system OAADPr esterase. Description: Cytoplasmic OAADPr esterase activity in HEK-293 cytoplasmic extract. The data set is classed as biochemical. Here is the method: Shown is the development of whole cell currents over time in TRPM2-expressing HEK-293 cells. Bath solution was standard ringer's, and pipette solution was Cs-based and included 10 mM EGTA to buffer intracellular Ca^2+ to 10 nM. The patch pipette contained various concentrations of (FIG. 1a) ADPr, (FIG. 1b) OAADPr (FIG. 1c) OAADPr and puromycin as indicated in the figure. FIG. 1d.) Cytoplasmic OAADPr esterase activity is inhibited by puromycin. 200 μM O-[^3H]AADPr and 0-100 μM puromycin were added to cytoplasmic HEK-293 extract for 30 min. Percent hydrolysis of O-[^3H]AADPr to [^3H]acetate was measured as described hereinbelow. FIG. 1e.) Nuclear OAADPr acetyltransferase activity is not inhibited by puromycin. HEK-293 nuclear extract was incubated with 200 μM O-[^3H]AADPr in the presence or absence of 100 μM puromycin for 60 min. The reactions were quenched and resolved by HPLC. The radioactivity in collected fractions was determined by liquid scintillation counting. FIGS. 1f-g.) In vivo detection of OAADPr. Mass spectrum of HEK-293 generated OAADPr (peak m/z of 602.0894; the theoretical m/z for OAADPr is 602.0895) after puromycin treatment, with authentic [^13C]-OAADPr (peak m/z of 603.0851 and isotopic distribution of 604.0878 and 605.0928) as a standard. Peak 599.3691 is from the matrix.
Cytoplasmic and nuclear extracts were prepared from HEK-293 cells as previously described (22). To detect esterase activity (22), cytoplasmic extract was incubated with 200 μM O-[^3H]AADPr in the presence of 0-100 μM puromycin for 30 min. Activated charcoal slurry in PBS, pH 7.0 was added to quench the reaction and bind O-[^3H]AADPr. Samples were vortexed and centrifuged. Aliquots of the supernatant containing [^3H]acetate were removed and analyzed by liquid scintillation counting. To detect nuclear OAADPr metabolizing activity (22), nuclear extract was incubated with 200 μM O-[^3H]AADPr in the presence or absence of 100 μM puromycin for 60 min. The reaction was terminated by addition of TFA to 1%. […] Radioactivity in each elution fraction was measured by liquid scintillation counting.

A further data set has as its system CRI-G1 cells. Nature of the data set: Cell viability assay (calcein fluorescence), CRI-G1 cells. The data set is classed as cell-based, rat. The settings on record: 0-40 μM puromycin, 16 h. How it is done: FIG. 4 a) OAADPr gates the endogenous TRPM2 channel in CRI-G1 cells. Left panel: Evolution of currents in CRI-G1 cells in the absence (grey squares) or presence (black circles) of OAADPr (120-250 μM). Shown are average leak subtracted currents from n=3 cells for each condition. Right panel: Representative leak subtracted whole cell I/V curves for peak currents observed in the absence (grey line) and presence (black line) of OAADPr. For the above measurements, CRI-G1 cells were maintained in the whole cell patch clamp configuration as previously described for HEK-293 cells (44). b) Puromycin leads to cell death in CRI-G1 cells. CRI-G1 cells were treated with 0-40 μM puromycin for 16 h. Cell viability was assessed by measuring fluorescence of calcein in live cells. Data obtained from 4 independent experiments were plotted as a percent change in fluorescence compared to those of untreated cells set at a 100%. Error bars indicate the standard deviation from the mean. (Inset) Nicotinamide rescues puromycin-induced death in CRI-G1 cells. […] Cell viability was assessed 16 h later as described above. […] Calcein is retained in living, but not dead cells, where it undergoes catalytic conversion into a fluorescent compound Fluorescence in each well was measured in a microplate reader using excitation and emission filters at 485/530 nm, respectively.

A further data set has as its system pancreatic cells. To be noted: not the result of inhibition of protein synthesis (ref. 47); cited from earlier work.

With `COc1ccc(C[C@H](N)C(=O)N[C@H]2[C@@H](O)[C@H](n3cnc4c(N(C)C)ncnc43)O[C@@H]2CO)cc1` [puromycin], in the data set on OAADPr esterase (5 μM puromycin), the “inhibition of cytosolic esterase activity” value is “substantially inhibit”. In the data set with OAADPr esterase (80 μM puromycin), the “inhibition of esterase activity” value is reported as “completely inhibited”. For the same compound, in the data set on OAADPr esterase (200 μM O-[3H]AADPr, 0-100 μM puromycin, 30 min), the “inhibition of OAADPr esterase” value is “potent inhibitor”. In addition, the “cell death of CRI-G1 cells” value in the data set on CRI-G1 cells is recorded as “dose-dependent death”. Further, in the data set on pancreatic cells, the “effect of puromycin treatment in whole rat” value is listed as “specific pancreatic cell death”.
